Patent US8901116B2, “Method for treating pain, anxiety or depression using carbamoyloxy alkanoyl piperazine compound” (SK Biopharmaceuticals Co., Ltd., priority 2007, dated 2014)

What was measured:
Type in all cases: in vivo
[1] = tested on: male ICR mouse; experiment: Elevated plus maze (EPM) test in mouse; conditions: po, p.o, 1 hour after dosing, 5 minutes observation, read-out: Elevated Plus Maze Change index in Open-Arm Time
How it was run: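 Male ICR mice (20–25 g) received test material orally at 10 mg/kg, and open-arm time on the maze was recorded over 5 min starting 1 h after dosing. Value is the change index in open-arm time: (treated − vehicle)/vehicle × 100%.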

[2] = tested on: male ICR mouse; experiment: Head twitch potentiation induced by 5-HTP (5-HTP potentiation test) in mouse; conditions: po, 0.5 h, p.o, 5-HTP 80 mg/kg + Carbidopa 25 mg/kg i.p. 30 minutes after dosing, head twitches counted for 2 minutes, negative = 5-HT2A antagonist, read-out: 5-HTP Potentiation Increase rate in Head Twitch No.
How it was run: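 Male ICR mice (20-25 g) dosed orally at 30 mg/kg; 30 min later given 5-HTP (80 mg/kg) plus carbidopa (25 mg/kg) i.p. Head twitches counted for 2 min starting 30 min after i.p. dosing; effect expressed as % increase in twitch number versus vehicle group.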

[3] = tested on: male ICR mouse; experiment: Hot plate test in mouse; conditions: po, p.o, 1 hour after dosing, hot plate 55° C., read-out: Hot Plate Test Increase in latency of avoidance response
How it was run: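 Male ICR mice (25–30 g) dosed orally at 30 mg/kg and placed on a 55° C. hot plate 1 h later. Latency to forefoot or hind-leg avoidance (flinching, licking, jumping) recorded; effect expressed as % increase in latency over vehicle group.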

[4] = tested on: male ICR mouse; experiment: Acetic acid-induced writhing test in mouse; conditions: po, p.o, acetic acid i.p. 1 hour after dosing, writhing counted for 10 minutes, read-out: Writhing Test Suppression of pain response
How it was run: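 Test material given orally at 10 mg/kg to male mice (30–35 g); 1 h later 0.8% acetic acid injected i.p. Writhes counted over 10 min immediately afterwards; analgesia expressed as percent suppression of writhing versus vehicle group.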

SMILES | change in vivo at 10 mg/kg [1] [%] | change in vivo at 30 mg/kg [2] [%] | change in vivo at 30 mg/kg [3] [%] | inhibition in vivo at 10 mg/kg [4] [%]
NC(=O)O[C@@H](CC(=O)N1CCN(c2ccc(F)c(F)c2)CC1)c1ccccc1 [Example 64, (S)-carbamic acid 3-[4-(3,4-difluoro-phenyl)-piperazin-1-yl]-3-oxo-1-phenyl-propyl ester] | 125 | 134 | 33 | 41.1
NC(=O)O[C@@H](CC(=O)N1CCN(c2ccc(Cl)c(Cl)c2)CC1)c1ccccc1 [Example 66, (S)-carbamic acid 3-[4-(3,4-dichloro-phenyl)-piperazin-1-yl]-3-oxo-1-phenyl-propyl ester] | 50.6 | -39.5 | 27.8 | 62.5
NC(=O)O[C@H](CC(=O)N1CCN(c2ccc(F)c(F)c2)CC1)c1ccccc1 [Example 67, (R)-carbamic acid 3-[4-(3,4-difluoro-phenyl)-piperazin-1-yl]-3-oxo-1-phenyl-propyl ester] | 34.3 | 58.8 | 34.3 | 45.1
NC(=O)O[C@H](CC(=O)N1CCN(c2ccc(Cl)c(Cl)c2)CC1)c1ccccc1 [Example 68, (R)-carbamic acid 3-[4-(3,4-dichloro-phenyl)-piperazin-1-yl]-3-oxo-1-phenyl-propyl ester] | 1.5 | -28.6 | 15.7 | 51
COc1ccc(N2CCN(C(=O)C[C@@H](OC(N)=O)c3ccccc3)CC2)cc1 [Example 70, (R)-carbamic acid 3-[4-(4-methoxy-phenyl)-piperazin-1-yl]-3-oxo-1-phenyl-propyl ester] | 109 | 87.9 | 30.6 | 59.8
COc1ccc(N2CCN(C(=O)C[C@@H](OC(N)=O)c3ccccc3)CC2)cc1OC [Example 71, (R)-carbamic acid 3-[4-(3,4-dimethoxy-phenyl)-piperazin-1-yl]-3-oxo-1-phenyl-propyl ester] | 125 | 127 | 55.8 | 46.5
O=C1Nc2ccccc2C(CC(=O)N2CCN(c3ccccc3)CC2)O1 (centres unmarked) [Example 77, 4-[2-oxo-2-(4-phenyl-piperazin-1-yl)-ethyl]-1,4-dihydro-benzo[d][1,3]oxazin-2-one] | 4.9 | 25 | 30.4 | 26.4
NC(=O)O[C@@H](CC(=O)N1CCN(c2ccc(F)cc2)CC1)c1ccccc1 [Example 79, (S)-carbamic acid 3-[4-(4-fluoro)-phenylpiperazin-1-yl]-3-oxo-1-phenyl-propyl ester] | -5.1 | -30 | 29.3 | 40.7
Cc1ccc(N2CCN(C(=O)C[C@@H](OC(N)=O)c3ccccc3)CC2)cc1 [Example 80, (R)-carbamic acid 3-[4-(4-methyl)-phenylpiperazin-1-yl]-3-oxo-1-phenyl-propyl ester] | 41.2 | 12.5 | 16.7 | 36.3
Cc1ccc(N2CCN(C(=O)C[C@H](OC(N)=O)c3ccccc3)CC2)cc1 [Example 81, (S)-carbamic acid 3-[4-(4-methyl)-phenylpiperazin-1-yl]-3-oxo-1-phenyl-propyl ester] | 23 | -21.4 | 9.2 | 20.1
NC(=O)O[C@H](CC(=O)N1CCN(c2ccc(F)cc2F)CC1)c1ccccc1 [Example 82, (R)-carbamic acid 3-[4-(2,4-difluoro)-phenylpiperazin-1-yl]-3-oxo-1-phenyl-propyl ester] | 62.6 | -20 | 65.7 | 34.5
